Measurements published in the supplement of paper PMC9103864.

Key:
[1] = test system: BMSC (primary human bone marrow mesenchymal stromal cells); assay: absolute EC50 for viability; higher = less sensitive
[2] = test system: BMSC (primary human bone marrow mesenchymal stromal cells); assay: drug sensitivity score (DSS); higher = more sensitive

Compound | absolute EC50 for viability [1] [nM] | drug sensitivity score [2]
CNC(=O)c1ccc(N2C(=S)N(c3cnc(C#N)c(C(F)(F)F)c3)C(=O)C23CCC3)cc1F [Apalutamide] | > 10000 | 0
N#CC1(c2ccc(NC(=O)c3cccnc3NCc3ccncc3)cc2)CCCC1 [Apatinib] | > 10000 | 0.1
O=C(Nc1ccc(OC(F)(F)Cl)cc1)c1cnc(N2CC[C@@H](O)C2)c(-c2cc[nH]n2)c1 [Asciminib] | > 1000 | 0
CC(C)c1c(C(=O)Nc2ccccc2)c(-c2ccccc2)c(-c2ccc(F)cc2)n1CC[C@@H](O)C[C@@H](O)CC(=O)O [Atorvastatin] | 8180 | 3.1
CC(=O)OC[C@H]1O[C@@H]([S-])[C@H](OC(C)=O)[C@@H](OC(C)=O)[C@@H]1OC(C)=O.CCP(CC)CC.[Au+] [Auranofin] | 1390 | 3.3
CNC(=O)c1ccccc1Sc1ccc2c(/C=C/c3ccccn3)n[nH]c2c1 [Axitinib] | > 10000 | 7.9
Nc1ncn([C@@H]2O[C@H](CO)[C@@H](O)[C@H]2O)c(=O)n1 [Azacitidine] | > 10000 | 2.3
Cc1cc(-c2nc(-c3ccc(OC(F)(F)F)cc3)no2)nn1Cc1ccnc(N2CCN(C3CC3)CC2)c1 [BAY 87-2243] | > 1000 | 0
c1ccc2n[se]nc2c1 [BCI] | 2550 | 14.9
Nc1nc(Nc2ccc3c(c2)CC[C@@H](N2CCCC2)CC3)nn1-c1cc2c(nn1)-c1ccccc1CCC2 [BGB324] | 2490 | 6.7
O=C1CCc2c(Oc3ccc4c(c3)[C@@H]3[C@H](O4)[C@H]3c3nc4cc(C(F)(F)F)ccc4[nH]3)ccnc2N1 [BGB-283] | > 10000 | 4.2
CC[C@@H]1C(=O)N(C)c2cnc(Nc3ccc(C(=O)NC4CCN(C)CC4)cc3OC)nc2N1C1CCCC1 [BI 2536] | > 1000 | 1.9
COc1c(C)cnc(Cn2cnc3c(Cl)nc(N)nc32)c1C [BIIB021] | 449 | 12
CC1(C)C(C(=O)Nc2ccc(S(=O)(=O)c3ccc(NC(=O)C4C(C)(C)C4(C)C)cc3)cc2)C1(C)C [BRD7116] | > 10000 | 0
O=C(Nc1cccc(Nc2ncc(Br)c(NCCc3cnc[nH]3)n2)c1)N1CCCC1 [BX-912] | 2170 | 6.7
Cc1ccc(NC(=O)c2ccc(CN3CC[C@H](N(C)C)C3)c(C(F)(F)F)c2)cc1Nc1nccc(-c2cncnc2)n1 [Bafetinib] | > 1000 | 1.9
CCN(CCCOc1ccc2c(Nc3cc(CC(=O)Nc4cccc(F)c4)[nH]n3)ncnc2c1)CCOP(=O)(O)O [Barasertib] | > 1000 | 0.1
CCS(=O)(=O)N1CC(CC#N)(n2cc(-c3ncnc4[nH]ccc34)cn2)C1 [Baricitinib] | > 2500 | 0.1
O=C(/C=C/c1cccc(S(=O)(=O)Nc2ccccc2)c1)NO [Belinostat] | 2230 | 7.2
N#CC(c1ccnc(OCc2ccc(CN3CCOCC3)cc2)n1)c1nc2ccccc2s1 (stereo unspecified) [Bentamapimod] | > 10000 | 0
C=C(c1ccc(C(=O)O)cc1)c1cc2c(cc1C)C(C)(C)CCC2(C)C [Bexarotene] | > 10000 | 0
CCNC(=O)CCC/C=C\C[C@@H]1[C@@H](/C=C/[C@@H](O)CCc2ccccc2)[C@H](O)C[C@@H]1O [Bimatoprost] | > 5500 | -0.9
Cn1cnc2c(F)c(Nc3ccc(Br)cc3F)c(C(=O)NOCCO)cc21 [Binimetinib] | > 1000 | 1.9
